Test results: patent US9873702B2, “Heterocyclic compounds as biogenic amine transport modulators” (Southern Research Institute, priority 2014, dated 2018)
Where two headings read alike, the source gives them in different places.

Key:
[1] = target: T1, serotonin transporter (SERT) (Rattus norvegicus, UniProt P31652); experiment: Serotonin reuptake ([^3H]serotonin uptake) inhibition in rat brain synaptosomes; format: biochemical
T1 construct: Freshly removed whole brain minus cerebellum and caudate was homogenized; from tissue; host or cells: rat whole brain minus cerebellum and caudate, synaptosomes

DAT = target: T2, DAT (Rattus norvegicus, UniProt P23977); experiment: Dopamine transporter binding, inhibition of [^3H]WIN35428 binding in rat caudate membranes; conditions: for EC50: read-out: WIN Binding EC50 (μM ± SD)
T2 construct: from tissue; host or cells: rat caudate membranes
Description: The ability of test drugs to inhibit [^3H]WIN35428 binding to DAT in rat caudate membranes was assessed as follows. For each experiment, caudates from four rat brains were suspended in 15 mL ice cold assay buffer (50 mM sodium phosphate pH 7.4) and homogenized using a polytron (setting 6, 20 sec). The homogenate was centrifuged at 30,000×g for 10 minutes at 4° C. The pellet was resuspended with vigorous vortexing in 15 mL fresh ice cold assay buffer, and the centrifugation was repeated. The pellet was resuspended in 15 mL fresh ice cold assay buffer with vigorous vortexing followed by six strokes with a glass-on-glass hand-held homogenizer and was diluted to a final volume of 235 mL in ice cold assay buffer. [^3H]WIN35428 was diluted to 10 nM in assay buffer that contained 25 μg/mL chymostatin, 25 μg/mL leupeptin, 0.1 mM EDTA, and 0.1 mM EGTA. Each assay tube contained 0.75 mL membrane preparation, 0.15 mL test drug diluted in assay buffer containing 1 mg/mL bovine serum albumin, and 0.1 mL [^3H]WIN35428 preparation (final concentration of 1 nM). Assays were initiated by the addition of membranes and were terminated after 2 hours at 25° C. by rapid vacuum filtration. Retained tritium was measured as described. The data from three experiments were pooled and fit to a dose-response curve equation (using Kaleidagraph), to yield an Emax and EC50 value.

[2] = target: T3, dopamine transporter (DAT) (Rattus norvegicus, UniProt P23977); experiment: Dopamine reuptake ([^3H]dopamine uptake) inhibition in rat brain synaptosomes
[3] = target: norepinephrine transporter (NET) (Rattus norvegicus, UniProt Q9WTR4); experiment: Norepinephrine reuptake ([^3H]norepinephrine uptake) inhibition in rat brain synaptosomes; conditions: for NE Uptake Emax (% I ± SD): maximal inhibition from dose-response fit
Description: Freshly removed whole brain minus cerebellum and caudate was homogenized in 10% ice-cold sucrose with 12 strokes of a hand-held Potter-Elvehjem homogenizer followed by centrifugation at 1000×g for 10 minutes. The supernatants were saved on ice and used immediately. Transporter activity at NET was assessed using 10 nM [^3H]norepinephrine. […] Uptake inhibition assays were conducted at 37° C. and were initiated by adding 100 μL of tissue to 900 μL assay buffer containing test drug and [^3H]norepinephrine. Test drugs were diluted in assay buffer containing 1 mg/mL bovine serum albumin. Nonspecific uptake was measured by incubating in the presence of 10 μM indatraline. The reactions were stopped after 10 minutes by rapid vacuum filtration with a cell harvester (BRANDEL) over GF/B filters (Whatman) presoaked in wash buffer maintained at 25° C. (10 mM Tris-HCl, pH 7.4/150 mM NaCl). Filters were rinsed with 6 mL wash buffer and retained tritium was quantified by a MicroBeta liquid scintillation counter (PerkinElmer) after overnight extraction in 0.6 mL of liquid scintillation cocktail (Cytoscint, ICN). The data from three experiments were pooled and fit to a dose-response curve equation (using Kaleidagraph), to yield an Emax and EC50 value.
The data from three experiments were pooled and fit to a dose-response curve equation (using KaleidaGraph; Synergy Software, Reading, Pa.) to yield an Emax and IC50 value.

[4] = target: T3, dopamine transporter (DAT); experiment: Dopamine transporter-mediated [^3H]MPP^+ release, shift of D-amphetamine-induced release, rat caudate synaptosomes; format: biochemical; design: Freshly removed caudate was homogenized in 10% ice-cold sucrose; from tissue; host or cells: rat caudate synaptosomes
[5] = mean ± S.D., n = 3, read-out: SERT Uptake Emax
[6] = mean ± S.D., n = 3, read-out: SERT Uptake IC50
[7] = 2 h, read-out: DAT Binding εmax
[8] = DAT Uptake IC50, [3H]DA uptake inhibition, mean ± S.D., n = 3
[9] = IC50 for DAT Uptake Inhibition, rounded value as listed in Table 10
[10] = read-out: Emax for DAT Uptake Inhibition
[11] = rat brain synaptosomes, 10 nM [^3H]norepinephrine
[12] = read-out: NE Uptake EC50 (nM ± SD), rat brain synaptosomes, 10 nM [^3H]norepinephrine, 10 min, 37° C.
[13] = read-out: NET Uptake IC50, mean ± S.D., n = 3
[14] = [3H]MPP+ release, Apparent Kc = [Blocker]/((EC50-2/EC50-1) − 1), negative when shifted EC50 is less than control
[15] = apparent Ke from shift of D-amphetamine-induced [^3H]MPP^+ release, compound at the concentration of column 1, read-out: Ke App
[16] = Emax of D-amphetamine for [^3H]MPP^+ release in presence of 250 nM test compound
[17] = inhibition of [3H]WIN35428 binding, mean ± S.D., n = 3
[18] = Emax of D-amphetamine for [^3H]MPP^+ release in presence of 50 nM test compound

T3 sequence (P23977 whole entry): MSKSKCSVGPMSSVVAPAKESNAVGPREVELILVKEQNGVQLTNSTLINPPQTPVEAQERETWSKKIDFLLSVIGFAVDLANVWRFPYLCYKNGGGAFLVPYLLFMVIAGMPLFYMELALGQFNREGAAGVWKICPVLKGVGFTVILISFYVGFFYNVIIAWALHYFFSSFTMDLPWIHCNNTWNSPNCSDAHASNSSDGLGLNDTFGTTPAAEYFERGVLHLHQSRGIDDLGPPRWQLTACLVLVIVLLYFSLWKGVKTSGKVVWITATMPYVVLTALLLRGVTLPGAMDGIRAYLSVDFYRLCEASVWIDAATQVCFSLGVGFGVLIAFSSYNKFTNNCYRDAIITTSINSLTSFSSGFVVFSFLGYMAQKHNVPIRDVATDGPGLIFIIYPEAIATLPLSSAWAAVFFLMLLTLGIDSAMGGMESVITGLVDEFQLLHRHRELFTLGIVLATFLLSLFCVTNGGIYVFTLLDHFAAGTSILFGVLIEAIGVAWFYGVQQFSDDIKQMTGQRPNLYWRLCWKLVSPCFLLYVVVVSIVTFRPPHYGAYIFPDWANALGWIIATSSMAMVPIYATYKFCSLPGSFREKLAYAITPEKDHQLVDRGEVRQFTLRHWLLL
T2 sequence (P23977 whole entry): as above
T1 sequence (P31652 whole entry): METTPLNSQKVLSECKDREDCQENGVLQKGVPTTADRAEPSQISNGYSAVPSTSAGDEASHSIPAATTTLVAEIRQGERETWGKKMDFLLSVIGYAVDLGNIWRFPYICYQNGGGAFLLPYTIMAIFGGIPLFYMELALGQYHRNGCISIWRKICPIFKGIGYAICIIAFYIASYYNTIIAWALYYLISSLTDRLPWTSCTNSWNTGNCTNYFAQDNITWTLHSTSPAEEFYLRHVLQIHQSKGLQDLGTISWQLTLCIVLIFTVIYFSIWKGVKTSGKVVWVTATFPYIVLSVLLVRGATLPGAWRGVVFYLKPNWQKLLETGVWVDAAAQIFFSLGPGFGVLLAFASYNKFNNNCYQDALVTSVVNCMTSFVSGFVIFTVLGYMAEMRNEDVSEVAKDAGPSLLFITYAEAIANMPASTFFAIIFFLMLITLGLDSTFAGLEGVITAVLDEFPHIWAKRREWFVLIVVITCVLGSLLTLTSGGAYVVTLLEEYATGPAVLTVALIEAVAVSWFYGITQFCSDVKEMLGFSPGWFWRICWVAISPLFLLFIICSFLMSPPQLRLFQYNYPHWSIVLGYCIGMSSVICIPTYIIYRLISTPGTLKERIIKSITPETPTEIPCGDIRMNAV

Structure (SMILES): CN(C)c1ncc(-c2nc(NCC(c3ccccc3)c3ccccc3)c3ccccc3n2)cn1 [compound 16, 2-(2-(Dimethylamino)pyrimidin-5-yl)-N-(2,2-diphenylethyl)quinazolin-4-amine]
- Emax [1, 5]: 55 ± 5%
- IC50 [1, 6]: 37 ± 18 nM
- Emax (DAT; [7]): 76 ± 2%
- EC50 (DAT): 1.7 ± 0.2 µM
- IC50 [2, 8]: 20 ± 1 nM
- IC50 [2, 9]: 20 nM
- Emax ([2]; read-out: DAT Uptake Emax): 73 ± 1%
- Emax [2, 10]: 73%
- NET Uptake Emax ([3]; mean ± S.D., n = 3): 73 ± 4%
- NE Uptake Emax (% I ± SD) [3, 11]: 73 ± 4 % I
- IC50 [3, 12]: 181 ± 46 nM
- IC50 [3, 13]: 181 ± 46 nM
- D-Amphetamine Emax (% ± SD) ([4]; Emax of D-amphetamine for [^3H]MPP^+ release in presence of 500 nM test compound): 101 ± 3%
- Apparent Kc [4, 14]: 1820 nM
- Kb [4, 15]: 1820 nM

Structure (SMILES): c1ccc(C(CNc2nc(-c3ccc4nccn4c3)nc3ccccc23)c2ccc[nH]2)cc1 (centres unmarked) [compound 117, 2-(Imidazo[1,2-A]Pyridin-6-yl)-N-(2-Phenyl-2-(1H-Pyrrol-2-yl)Ethyl)Quinazolin-4-Amine]
- Emax [1, 5]: 56 ± 2%
- IC50 [1, 6]: 18 ± 4 nM
- Emax (DAT; [7]): 42 ± 3%
- IC50 [2, 8]: 6.1 ± 1 nM
- IC50 [2, 9]: 6 nM
- Emax ([2]; read-out: DAT Uptake Emax): 64 ± 2%
- Emax [2, 10]: 64%
- NET Uptake Emax ([3]; mean ± S.D., n = 3): 81 ± 2%
- NE Uptake Emax (% I ± SD) [3, 11]: 81 ± 2 % I
- IC50 [3, 12]: 88 ± 15 nM
- IC50 [3, 13]: 88 ± 15 nM
- D-Amphetamine Emax (% ± SD) ([4]; Emax of D-amphetamine for [^3H]MPP^+ release in presence of 150 nM test compound): 105 ± 4%
- Apparent Kc [4, 14]: 1600 nM
- Kb [4, 15]: 1600 nM

Structure (SMILES): c1ccc(C(CNc2nc(-c3ccc4[nH]ccc4c3)nc3ccccc23)c2ccccc2)cc1 [compound 17, N-(2,2-Diphenylethyl)-2-(1H-indol-5-yl)quinazolin-4-amine]
- Emax [1, 5]: 54 ± 2%
- IC50 [1, 6]: 68 ± 13 nM
- Emax (DAT; [7]): 87 ± 4%
- EC50 (DAT): 0.9 ± 0.2 µM
- IC50 [2, 8]: 10 ± 1 nM
- IC50 [2, 9]: 10 nM
- Emax ([2]; read-out: DAT Uptake Emax): 74 ± 1%
- Emax [2, 10]: 74%
- NET Uptake Emax ([3]; mean ± S.D., n = 3): 70 ± 3%
- NE Uptake Emax (% I ± SD) [3, 11]: 70 ± 3 % I
- IC50 [3, 12]: 290 ± 52 nM
- IC50 [3, 13]: 290 ± 52 nM
- D-Amphetamine Emax (% ± SD) [4, 16]: 94 ± 2%
- Apparent Kc [4, 14]: 456 nM
- Kb [4, 15]: 456 nM

Structure (SMILES): c1ccc(C(CNc2nc(-c3ccc4ncnn4c3)nc3ccccc23)c2ccccc2)cc1 [compound 105, 2-([1,2,4]Triazolo[1,5-A]Pyridin-6-yl)-N-(2,2-Diphenylethyl)Quinazolin-4-Amine]
- Emax [1, 5]: 35 ± 3%
- IC50 [1, 6]: 13 ± 6 nM
- DAT Binding εmax (DAT; [17]): Inactive
- IC50 [2, 8]: 8.8 ± 1.1 nM
- IC50 [2, 9]: 9 nM
- Emax ([2]; read-out: DAT Uptake Emax): 63 ± 1%
- Emax [2, 10]: 63%
- NET Uptake Emax ([3]; mean ± S.D., n = 3): 40 ± 5%
- NE Uptake Emax (% I ± SD) [3, 11]: 40 ± 5 % I
- IC50 [3, 12]: 86 ± 55 nM
- IC50 [3, 13]: 86 ± 55 nM
- D-Amphetamine Emax (% ± SD) [4, 16]: 105 ± 4%

Structure (SMILES): Cc1cc2nccn2cc1-c1nc(NCC(c2ccccc2)c2ccncc2)c2ccccc2n1 (centres unmarked) [compound 151, 2-(7-Methylimidazo[1,2-A]Pyridin-6-yl)-N-(2-Phenyl-2-(Pyridin-4-yl)Ethyl)Quinazolin-4-Amine]
- IC50 [1, 6]: 2.4 ± 0.4 nM
- Emax (DAT; [7]): 92 ± 4%
- IC50 [2, 8]: 1.9 ± 0.3 nM
- IC50 [2, 9]: 2 nM
- Emax ([2]; read-out: DAT Uptake Emax): 72 ± 2%
- Emax [2, 10]: 72%
- NET Uptake Emax ([3]; mean ± S.D., n = 3): 61 ± 2%
- IC50 [3, 13]: 17 ± 4 nM
- D-Amphetamine Emax (% ± SD) [4, 18]: 103 ± 3%
- Apparent Kc [4, 14]: 400 nM
- Kb [4, 15]: 400 nM

Structure (SMILES): c1ccc(C(Nc2nc(-c3ccc4[nH]ccc4c3)nc3ccccc23)c2ccccc2)cc1 [compound 13, N-Benzhydryl-2-(1H-indol-5-yl)quinazolin-4-amine]
- IC50 ([1]; rat brain synaptosomes, 5 nM [^3H]serotonin, 30 min, 25° C., read-out: 5HT Uptake EC50 (nM ± SD)): 6380 ± 2640 nM
- Emax ([1]; rat brain synaptosomes, 5 nM [^3H]serotonin, maximal inhibition from dose-response fit, read-out: 5HT Uptake Emax (% I ± SD)): 56 ± 9%
- EC50 (DAT): 2.7 ± 0.3 µM
- Emax (DAT; read-out: WIN Binding Emax (% I ± SD)): 77 ± 2%
- IC50 ([2]; DA Uptake EC50 (nM ± SD), rat caudate synaptosomes, 5 nM [^3H]dopamine, 15 min, 25° C., three experiments pooled): 212 ± 49 nM
- Emax ([2]; read-out: DA Uptake Emax (% I ± SD)): 71 ± 3%
- NE Uptake Emax (% I ± SD) [3, 11]: 62 ± 5 % I
- IC50 [3, 12]: 5850 ± 1750 nM
- D-Amphetamine Emax (% ± SD) ([4]; Emax of D-amphetamine for [^3H]MPP^+ release in presence of 5000 nM test compound): 96 ± 3%
- Kb [4, 15]: 25800 nM

Structure (SMILES): Cc1cc2nccn2cc1-c1nc(NCC(O)(c2ccccc2)c2ccccc2)c2ccccc2n1 [compound 152, 2-((2-(7-Methylimidazo[1,2-A]Pyridin-6-yl)Quinazolin-4-yl)Amino)-1,1-Diphenylethanol]
- IC50 [1, 6]: 3 ± 0.6 nM
- Emax (DAT; [7]): 52 ± 8%
- IC50 [2, 8]: 1.7 ± 0.1 nM
- IC50 [2, 9]: 2 nM
- Emax ([2]; read-out: DAT Uptake Emax): 69 ± 1%
- NET Uptake Emax ([3]; mean ± S.D., n = 3): 69 ± 4%
- IC50 [3, 13]: 16 ± 5 nM
- D-Amphetamine Emax (% ± SD) [4, 18]: 104 ± 4%
- Apparent Kc [4, 14]: 46 nM

Structure (SMILES): Cl.Fc1ccc2c(NCC(c3ccccc3)c3ccccc3)nc(-c3ccc4nccn4c3)nc2c1 [compound 124, N-(2,2-Diphenylethyl)-7-Fluoro-2-(Imidazo[1,2-A]Pyridin-6-yl)Quinazolin-4-Amine Hydrochloride]
- IC50 [1, 6]: 25 ± 7 nM
- Emax ([1]; read-out: SERT Uptake Emax): 49 ± 2%
- DAT Binding IC50 (DAT; [17]): Inactive
- DAT Binding εmax (DAT; [17]): Inactive
- IC50 [2, 8]: 7.4 ± 1.1 nM
- IC50 [2, 9]: 7 nM
- Emax ([2]; read-out: DAT Uptake Emax): 69 ± 1%
- Emax [2, 10]: 69%
- NET Uptake Emax ([3]; mean ± S.D., n = 3): 63 ± 3%
- NE Uptake Emax (% I ± SD) [3, 11]: 63 ± 3 % I
- IC50 [3, 12]: 94 ± 22 nM
- IC50 [3, 13]: 94 ± 22 nM
- Apparent Kc [4]: 3200 nM
- Kb [4]: 3200 nM
- D-Amphetamine Emax (% ± SD) ([4]; Emax of D-amphetamine for [^3H]MPP^+ release in presence of 200 nM test compound): 104 ± 5%

Structure (SMILES): CN(C)c1ccc(-c2nc(NCC(c3ccccc3)c3ccccc3)c3ccccc3n2)cn1 [compound 69, 2-(6-(Dimethylamino)Pyridin-3-yl)-N-(2,2-Diphenylethyl)Quinazolin-4-Amine]
- Emax [1, 5]: 51 ± 2%
- IC50 [1, 6]: 42 ± 12 nM
- Emax (DAT; [7]): 83 ± 3%
- EC50 (DAT): 1.2 ± 0.2 µM
- IC50 [2, 8]: 7.3 ± 2.2 nM
- IC50 [2, 9]: 7 nM
- Emax ([2]; read-out: DAT Uptake Emax): 63 ± 3%
- Emax [2, 10]: 63%
- NET Uptake Emax ([3]; mean ± S.D., n = 3): 71 ± 6%
- NE Uptake Emax (% I ± SD) [3, 11]: 71 ± 6 % I
- IC50 [3, 12]: 147 ± 63 nM
- IC50 [3, 13]: 147 ± 63 nM
- D-Amphetamine Emax (% ± SD) [4, 16]: 99 ± 2%
- Apparent Kc [4, 14]: 912 nM
- Kb [4, 15]: 912 nM
